Measurements: ChEMBL document CHEMBL6083240, “Design, synthesis and biological evaluation of arylpropylamine derivatives as potential multi-target antidepressants” (Bioorg Med Chem, 2024)
The source made the active and inactive calls. The calls are words filed in the database; no cut-off is given here.

Columns and labels:
[1] = biological target: 5-hydroxytryptamine receptor 2A (Homo sapiens, UniProt P28223); assay: Antagonist activity at 5-HT2A in HEK293 cells at 10 uM incubated for 60 mins by FLIPR assay relative to control; format: cell-based; set-up: scale not given: the % may be the effect or the level left; conditions: filed as antagonist
Sequence of 5-hydroxytryptamine receptor 2A (Homo sapiens, UniProt P28223) (P28223 whole entry): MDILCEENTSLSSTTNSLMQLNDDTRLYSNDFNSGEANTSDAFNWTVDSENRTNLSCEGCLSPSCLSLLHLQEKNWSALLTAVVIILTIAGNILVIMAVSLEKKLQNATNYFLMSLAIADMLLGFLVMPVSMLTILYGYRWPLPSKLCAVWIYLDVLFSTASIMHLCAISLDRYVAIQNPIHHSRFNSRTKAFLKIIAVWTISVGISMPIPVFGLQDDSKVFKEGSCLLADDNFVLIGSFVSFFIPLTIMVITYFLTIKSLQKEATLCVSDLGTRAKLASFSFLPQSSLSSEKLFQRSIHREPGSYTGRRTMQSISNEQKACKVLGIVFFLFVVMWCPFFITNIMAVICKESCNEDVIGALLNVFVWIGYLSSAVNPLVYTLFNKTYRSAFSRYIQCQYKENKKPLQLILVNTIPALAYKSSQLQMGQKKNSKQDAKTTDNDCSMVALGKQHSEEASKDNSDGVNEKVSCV

[2] = biological target: Sodium-dependent serotonin transporter (Rattus norvegicus, UniProt P31652); assay: Displacement of [3H]-paroxetine from SERT in rat cerebral cortex incubated for 10 mins by liquid scintillation counting method; format: tissue-based
Sequence of Sodium-dependent serotonin transporter (P31652 whole entry): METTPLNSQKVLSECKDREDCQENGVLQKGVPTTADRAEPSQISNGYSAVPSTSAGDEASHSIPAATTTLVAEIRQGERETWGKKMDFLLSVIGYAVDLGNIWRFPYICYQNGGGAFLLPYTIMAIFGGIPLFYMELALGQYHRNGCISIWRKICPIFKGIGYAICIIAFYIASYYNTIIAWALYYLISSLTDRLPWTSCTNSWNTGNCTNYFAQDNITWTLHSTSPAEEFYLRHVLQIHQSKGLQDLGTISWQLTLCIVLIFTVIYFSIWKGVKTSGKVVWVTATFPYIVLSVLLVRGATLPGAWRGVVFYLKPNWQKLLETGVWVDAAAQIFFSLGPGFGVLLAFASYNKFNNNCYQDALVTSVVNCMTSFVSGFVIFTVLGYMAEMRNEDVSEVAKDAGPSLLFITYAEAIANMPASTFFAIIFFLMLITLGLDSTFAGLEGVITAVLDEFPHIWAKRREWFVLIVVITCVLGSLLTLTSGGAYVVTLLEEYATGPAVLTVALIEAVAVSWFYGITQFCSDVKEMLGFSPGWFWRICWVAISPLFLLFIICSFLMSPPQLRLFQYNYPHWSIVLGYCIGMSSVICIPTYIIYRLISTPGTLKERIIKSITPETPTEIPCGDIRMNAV

Transporter [3] = biological target: T1, Transporter (Rattus norvegicus, UniProt Q63380); assay: Displacement of [3H]-nisoxetine from NET in rat hippocampal membrane incubated for 8 hrs by liquid scintillation counting method; format: cell membranes, Hippocampus
T1 sequence (Q63380 whole entry): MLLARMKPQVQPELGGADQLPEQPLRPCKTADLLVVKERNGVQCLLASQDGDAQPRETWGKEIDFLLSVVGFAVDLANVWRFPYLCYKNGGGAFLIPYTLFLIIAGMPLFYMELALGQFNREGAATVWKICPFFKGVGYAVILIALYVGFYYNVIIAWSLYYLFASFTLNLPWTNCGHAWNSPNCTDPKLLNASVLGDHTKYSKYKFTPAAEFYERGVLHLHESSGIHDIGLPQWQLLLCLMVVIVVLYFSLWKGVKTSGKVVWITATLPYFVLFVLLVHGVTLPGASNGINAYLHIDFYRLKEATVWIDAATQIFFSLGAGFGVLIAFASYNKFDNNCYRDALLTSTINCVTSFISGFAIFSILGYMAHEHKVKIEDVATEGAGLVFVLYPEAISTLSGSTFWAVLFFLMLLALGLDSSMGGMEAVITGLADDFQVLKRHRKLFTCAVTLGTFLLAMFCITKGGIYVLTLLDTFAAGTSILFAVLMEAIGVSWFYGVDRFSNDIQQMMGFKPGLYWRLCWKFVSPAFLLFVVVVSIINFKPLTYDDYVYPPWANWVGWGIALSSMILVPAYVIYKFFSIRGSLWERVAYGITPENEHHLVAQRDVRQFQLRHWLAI

[4] = biological target: T2, Alpha-1A adrenergic receptor (Rattus norvegicus, UniProt P43140); assay: Displacement of [3H]-prazosin from adrenergic alpha-1 receptor in rat cerebral cortex incubated for 60 mins by liquid scintillation counting method; format: toxicity, tissue-based
T2 sequence (P43140 whole entry): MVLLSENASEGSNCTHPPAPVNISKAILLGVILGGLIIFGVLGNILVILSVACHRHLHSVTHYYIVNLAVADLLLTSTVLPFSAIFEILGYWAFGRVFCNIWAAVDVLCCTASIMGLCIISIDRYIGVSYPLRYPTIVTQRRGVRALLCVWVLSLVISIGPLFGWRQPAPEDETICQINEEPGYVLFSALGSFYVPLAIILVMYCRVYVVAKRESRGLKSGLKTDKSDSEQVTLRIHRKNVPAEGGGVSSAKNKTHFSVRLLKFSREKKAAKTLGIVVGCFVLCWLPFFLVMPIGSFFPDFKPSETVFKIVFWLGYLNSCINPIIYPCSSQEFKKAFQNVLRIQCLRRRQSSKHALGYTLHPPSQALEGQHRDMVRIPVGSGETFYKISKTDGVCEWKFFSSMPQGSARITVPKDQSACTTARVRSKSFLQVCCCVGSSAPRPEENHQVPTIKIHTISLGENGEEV

histamine H1 receptor = assay: Displacement of [3H]-pyrilamine from H1 receptor in guinea pig cerebellum membrane incubated for 60 mins by liquid scintillation counting method; format: toxicity, cell membranes, Cavia porcellus; conditions: probe [3H]-pyrilamine
[5] = biological target: Voltage-gated inwardly rectifying potassium channel KCNH2 (Homo sapiens, UniProt Q12809); assay: Inhibition of human ERG expressed in HEK293 cells by whole-cell patch clamp method; format: toxicity, cell-based
Sequence of Voltage-gated inwardly rectifying potassium channel KCNH2 (Q12809 whole entry): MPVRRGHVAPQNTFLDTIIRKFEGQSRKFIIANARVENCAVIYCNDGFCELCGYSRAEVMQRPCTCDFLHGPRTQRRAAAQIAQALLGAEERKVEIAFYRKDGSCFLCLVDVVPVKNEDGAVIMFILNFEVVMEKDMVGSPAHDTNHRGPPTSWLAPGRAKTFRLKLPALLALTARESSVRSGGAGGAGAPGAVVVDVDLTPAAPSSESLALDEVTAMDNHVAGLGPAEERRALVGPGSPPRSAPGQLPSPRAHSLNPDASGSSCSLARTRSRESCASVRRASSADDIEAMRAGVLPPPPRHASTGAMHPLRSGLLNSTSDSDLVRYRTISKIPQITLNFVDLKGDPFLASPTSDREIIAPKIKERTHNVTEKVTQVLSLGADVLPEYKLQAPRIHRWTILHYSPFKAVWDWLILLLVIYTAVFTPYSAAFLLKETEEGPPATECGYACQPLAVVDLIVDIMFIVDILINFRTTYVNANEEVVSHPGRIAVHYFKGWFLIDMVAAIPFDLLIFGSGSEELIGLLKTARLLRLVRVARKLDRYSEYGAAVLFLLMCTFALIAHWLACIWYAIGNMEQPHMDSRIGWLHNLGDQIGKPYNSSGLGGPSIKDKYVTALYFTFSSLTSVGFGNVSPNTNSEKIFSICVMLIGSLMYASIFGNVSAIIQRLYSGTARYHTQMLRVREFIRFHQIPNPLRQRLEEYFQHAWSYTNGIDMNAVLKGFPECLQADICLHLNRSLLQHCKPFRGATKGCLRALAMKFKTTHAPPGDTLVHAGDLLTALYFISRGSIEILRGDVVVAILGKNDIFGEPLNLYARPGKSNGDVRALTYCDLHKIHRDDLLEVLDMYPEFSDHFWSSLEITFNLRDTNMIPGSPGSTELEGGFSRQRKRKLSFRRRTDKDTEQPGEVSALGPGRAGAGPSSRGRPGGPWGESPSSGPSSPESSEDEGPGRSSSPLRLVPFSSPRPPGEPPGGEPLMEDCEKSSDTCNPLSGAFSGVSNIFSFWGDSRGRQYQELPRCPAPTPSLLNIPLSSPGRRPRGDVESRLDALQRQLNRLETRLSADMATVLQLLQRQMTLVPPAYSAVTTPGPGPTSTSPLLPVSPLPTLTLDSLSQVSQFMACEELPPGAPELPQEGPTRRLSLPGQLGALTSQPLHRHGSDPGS

[6] = biological target: T3, 5-hydroxytryptamine receptor 2C (Rattus norvegicus, UniProt P08909); assay: Displacement of [3H]-mesulergine from 5-HT2C in rat cerebral cortex incubated for 15 mins by liquid scintillation counting method; format: tissue-based
T3 sequence (P08909 whole entry): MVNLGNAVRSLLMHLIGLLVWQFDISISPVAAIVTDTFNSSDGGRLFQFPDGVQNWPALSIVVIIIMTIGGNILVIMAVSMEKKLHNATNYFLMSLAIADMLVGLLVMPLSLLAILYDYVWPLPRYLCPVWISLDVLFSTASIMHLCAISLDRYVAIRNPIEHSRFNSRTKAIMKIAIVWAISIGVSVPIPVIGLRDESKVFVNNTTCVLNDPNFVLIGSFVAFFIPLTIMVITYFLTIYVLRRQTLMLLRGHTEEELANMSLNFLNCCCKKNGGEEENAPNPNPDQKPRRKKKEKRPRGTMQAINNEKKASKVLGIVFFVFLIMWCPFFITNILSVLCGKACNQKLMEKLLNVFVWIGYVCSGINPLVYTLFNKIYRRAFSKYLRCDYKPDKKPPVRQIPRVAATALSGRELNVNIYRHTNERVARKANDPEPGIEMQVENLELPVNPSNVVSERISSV

[7] = biological target: 5-hydroxytryptamine receptor 2A (Rattus norvegicus, UniProt P14842); assay: Displacement of [3H]-ketanserin from 5-HT2A in rat cerebral cortex incubated for 15 mins by liquid scintillation counting method; format: tissue-based
Sequence of 5-hydroxytryptamine receptor 2A (Rattus norvegicus, UniProt P14842) (P14842 whole entry): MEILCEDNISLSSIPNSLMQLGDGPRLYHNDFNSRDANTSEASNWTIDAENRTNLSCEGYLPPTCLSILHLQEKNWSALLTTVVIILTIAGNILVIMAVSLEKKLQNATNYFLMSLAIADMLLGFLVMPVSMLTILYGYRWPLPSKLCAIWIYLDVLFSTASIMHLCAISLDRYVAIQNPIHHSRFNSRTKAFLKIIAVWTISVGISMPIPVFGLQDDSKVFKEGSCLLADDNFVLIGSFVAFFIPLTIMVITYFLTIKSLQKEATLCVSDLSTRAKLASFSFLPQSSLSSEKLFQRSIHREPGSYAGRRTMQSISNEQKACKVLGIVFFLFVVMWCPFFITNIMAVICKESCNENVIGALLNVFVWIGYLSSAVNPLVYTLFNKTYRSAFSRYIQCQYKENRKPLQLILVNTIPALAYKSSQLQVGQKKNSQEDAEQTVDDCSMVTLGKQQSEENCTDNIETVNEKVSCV

[8] = biological target: 5-hydroxytryptamine receptor 2C (Homo sapiens, UniProt P28335); assay: Antagonist activity at 5-HT2C in HEK293 cells incubated for 60 mins by FLIPR assay; format: cell-based
[9] = biological target: T4, 5-hydroxytryptamine receptor 2C (Homo sapiens) (UniProt P28335); assay: Antagonist activity at 5-HT2C in HEK293 cells at 10 uM incubated for 60 mins by FLIPR assay relative to control; format: cell-based; set-up: scale not given: the % may be the effect or the level left; conditions: filed as antagonist
T4 sequence (whole entry): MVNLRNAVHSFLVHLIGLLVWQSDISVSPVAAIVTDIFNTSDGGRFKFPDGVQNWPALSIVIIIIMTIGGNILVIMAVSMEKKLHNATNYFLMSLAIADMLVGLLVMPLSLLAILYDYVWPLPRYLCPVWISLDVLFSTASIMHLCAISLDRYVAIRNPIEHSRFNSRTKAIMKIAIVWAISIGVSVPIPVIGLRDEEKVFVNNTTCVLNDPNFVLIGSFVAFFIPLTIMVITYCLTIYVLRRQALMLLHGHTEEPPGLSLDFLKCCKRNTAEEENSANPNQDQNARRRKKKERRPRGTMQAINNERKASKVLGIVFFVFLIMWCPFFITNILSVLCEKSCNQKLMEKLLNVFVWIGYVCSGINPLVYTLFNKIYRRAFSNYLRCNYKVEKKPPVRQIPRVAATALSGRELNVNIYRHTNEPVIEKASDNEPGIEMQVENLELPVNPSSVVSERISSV

Rattus norvegicus = assay: Antidepressant activity against ACTH-induced treatment resistant depression in Sprague-Dawley rat model assessed as reduction in immobility time at 30 mg/kg, ip by forced swimming test; format: functional, organism-based
Mus musculus [10] = assay: Antidepressant activity in IG dosed Kunming mouse assessed as decrease in immobility time by measuring minimal effective dose by tail suspension test; format: functional
Mus musculus [11] = assay: Antidepressant activity in IG dosed Kunming mouse assessed as decrease in immobility time by measuring minimal effective dose by forced swimming test; format: functional
[12] = In vivo inhibition of 5-HT2A in po dosed DOI-induced Kunming mouse assessed as reduction in head twitch response pretreated for 60 mins followed by DOI induction and measured for 20 mins; format: functional; conditions: 1.333 h, time 80 min
[13] = Acute toxicity in po dosed Sprague-Dawley rat assessed as mortality rate measured after 24 hrs; format: organism-based; conditions: in vivo
Transporter [14] = biological target: T1, Transporter; assay: Binding affinity to rat NET

O=C(c1ccc(F)cc1)C1CCN(CCn2c(=O)[nH]c3ccccc3c2=O)CC1
Activity [1]: 98.3%

CNCCC(Oc1cccc2c1OCO2)c1ccc(F)cc1 (stereo unspecified)
Ki [2]: 68.6 nM
Ki (Transporter [3]): 5.4 nM

CNCCC(Oc1cccc2c1OCO2)c1cccc(OC)c1 (stereo unspecified)
Ki [2]: 48.2 nM
Ki (Transporter [3]): 11.1 nM

CN(C)CCC(Oc1cccc2c1OCO2)c1cccc(F)c1 (stereo unspecified)
Ki [2]: 15.1 nM
Ki [4]: 1130 nM
Ki (Transporter [3]): 3 nM
Ki at 60 min (histamine H1 receptor): 549 nM
IC50 [5]: 940 nM
Ki [6]: 63.4 nM
Ki [7]: 89.3 nM

CNCCC(Oc1cccc2c1OCO2)c1cccc(C)c1 (stereo unspecified)
Ki [2]: 50.6 nM
Ki (Transporter [3]): 20.4 nM

CNCCC(Oc1cccc2c1OCO2)c1cccc(F)c1 (stereo unspecified)
Ki [2]: 59.3 nM
Ki (Transporter [3]): 7.5 nM

CN(C)CCC(Oc1cccc2c1OCO2)c1ccc(C(F)(F)F)cc1 (stereo unspecified)
Ki [2]: 182 nM
Ki (Transporter [3]): 124 nM

CN(C)CC[C@H](Oc1cccc2c1OCO2)c1ccc(F)cc1
Ki [2]: 3.3 nM
Ki [4]: 988 nM
Ki (Transporter [3]): 12.7 nM
Ki at 60 min (histamine H1 receptor): 823 nM
IC50 [5]: 907 nM
Ki [6]: 71.2 nM
Ki [7]: 57.7 nM

Cc1ccc(C(CCN(C)C)Oc2cccc3c2OCO3)cc1 (stereo unspecified)
Ki [2]: 69.7 nM
Ki (Transporter [3]): 195 nM

CNCCC(Oc1cccc2c1OCO2)c1ccccc1F (stereo unspecified)
Ki [2]: 84.9 nM
Ki (Transporter [3]): 20.5 nM

Cc1ccccc1C(CCN(C)C)Oc1cccc2c1OCO2 (stereo unspecified)
Ki [2]: 157 nM
Ki (Transporter [3]): 247 nM

CN(C)CCC(Oc1cccc2c1OCO2)c1ccc2c(c1)OCO2 (stereo unspecified)
Ki [2]: 9.5 nM
Ki [4]: 134 nM
Ki (Transporter [3]): 4.9 nM
Ki at 60 min (histamine H1 receptor): 426 nM
IC50 [5]: 371 nM
Ki [6]: 105 nM
Ki [7]: 55.1 nM

CNCCC(Oc1cccc2c1OCO2)c1ccccc1OC (stereo unspecified)
Ki [2]: 64.2 nM
Ki (Transporter [3]): 30.2 nM

CN(C)CCC(Oc1cccc2c1OCO2)c1ccccc1Cl (stereo unspecified)
Ki [2]: 29.7 nM
Ki (Transporter [3]): 19.5 nM

Cc1cccc(C(CCN(C)C)Oc2cccc3c2OCO3)c1 (stereo unspecified)
Ki [2]: 159 nM
Ki (Transporter [3]): 214 nM

Cc1cc2c(cc1Cl)N(C(=O)Nc1ccc(Oc3cccnc3C)nc1)CC2 [SB-242084]
IC50 [8]: 19.7 nM
Activity [9]: 98.6%

CN(C)CCC(Oc1cccc2c1OCO2)c1ccc(F)cc1 (stereo unspecified)
Ki [2]: 4.2 nM
Ki [4]: 1240 nM
Ki (Transporter [3]): 2.8 nM
Ki at 60 min (histamine H1 receptor): 937 nM
IC50 [5]: 1110 nM
Ki [6]: 29.6 nM
Ki [7]: 35.3 nM

Fc1ccc([C@@H]2CCNC[C@H]2COc2ccc3c(c2)OCO3)cc1
Activity (Rattus norvegicus): inactive

CNCCC(Oc1cccc2c1OCO2)c1ccccc1 (stereo unspecified)
Ki [2]: 19.8 nM
Ki [4]: 992 nM
Ki (Transporter [3]): 4.2 nM
Ki at 60 min (histamine H1 receptor): 669 nM
IC50 [5]: 818 nM
Ki [6]: 134 nM
Ki [7]: 156 nM

CNCC[C@H](Oc1cccc2ccccc12)c1cccs1 [DULOXETINE]
Activity (Mus musculus [10]): Dose-dependent-effect
minimal effective dose (Mus musculus [10]; po, read-out: MED): 16 mg/kg
Ki [4]: 1010 nM
Activity (Mus musculus [11]): Dose-dependent-effect
minimal effective dose (Mus musculus [11]; po, read-out: MED): 16 mg/kg
ED50 [12]: 30.9 mg/kg
Ki at 60 min (histamine H1 receptor): 1270 nM
LD50 at 24 h [13]: 279 mg/kg
Ki [6]: 2470 nM
Ki [7]: 1240 nM

CCc1nn(CCCN2CCN(c3cccc(Cl)c3)CC2)c(=O)n1CCOc1ccccc1 [NEFAZODONE]
Ki (Transporter [14]): 555 nM

CNCCC(Oc1cccc2c1OCO2)c1ccc(C(F)(F)F)cc1 (stereo unspecified)
Ki [2]: 74.1 nM
Ki (Transporter [3]): 31.1 nM

CNCCC(Oc1cccc2c1OCO2)c1ccc(OC)cc1 (stereo unspecified)
Ki [2]: 109 nM
Ki (Transporter [3]): 25.5 nM
